The test system of one data set is reticulocyte counts. In words: Oral EPO study in normal male volunteers: reticulocyte counts. Format: in vivo, human. Particulars: Study Day 4, 10 IU/Kg intravenous infusion. As for the experimental part:
(§1) Eight healthy, normal male volunteers participated in this study. After overnight fasting, on Study Day 1 the subjects received medication as follows:
(§2) Blood samples were collected at time 0, 0.5, 1, 2, 3, 4, 6, 10 and 14 hours after the medication; reticulocyte counts (%) were made and plasma EPO levels were measured by radioimmunoassay.
(§3) On Day 2 and Day 3, each subject was given the assigned coded study medications at 08:00 a.m., 14:00 p.m. and 22:00 p.m. and, after an overnight fast, on Study Day 4, each subject was examined again after having been given the study medications as above.
As to Erythropoietin [EPO], the Reticulocyte counts entry is “increased”.

Test system in another data set: not listed separately
In words: Oral EPO study in normal male volunteers: plasma EPO levels by radioimmunoassay. The class given is in vivo, human. The note with it: Study Day 1, 10 IU/kg intravenous infusion. As for the experimental part: as §1, §2, §3
For the substance Erythropoietin [EPO], the “plasma RIA-measured EPO levels” value is given as “markedly increased”.

Test system in another data set: not given
Assay: not given
Particulars: in vivo; cited from earlier work.
For orientation: LD50 means the dose expected to kill half of the subjects tested. As to Sorbitan monostearate, the LD50 was 31000 mg/kg.
Regarding POE(5) sorbitan monooleate, the LD50 is more than 37000 mg/kg.
Consider POE(2) oleyl ether, for which the LD50 was 25000 mg/kg.
On to Sorbitan tristearate, for which the LD50 was more than 16000 mg/kg.
For the substance POE(2) stearyl ether, the LD50 was more than 25000 mg/kg.
Regarding Sorbitan trioleate, the LD50 was more than 40000 mg/kg.
With POE(2) cetyl ether, the LD50 was 22000 mg/kg.
As for Sorbitan monolaurate, the LD50 is 41000 mg/kg.
With POE(4) sorbitan monostearate, the LD50 was more than 40000 mg/kg.
Take POE(23) lauryl ether: the LD50 is 9000 mg/kg.
Consider POE(4) lauryl ether, for which the LD50 was 9000 mg/kg.
In the case of Sorbitan monooleate, the LD50 is more than 40000 mg/kg.
For the substance Sorbitan monopalmitate, the LD50 was more than 16000 mg/kg.

(Values after US5665700A, “Pharmaceutical formulations” (Skua Investments Limited, priority 1994, dated 1997).)
